Source: ChEMBL document CHEMBL1201862, “PubChem BioAssay data set” (2004)
Calls of active or inactive are those of the source.

What was measured:
Leucine aminopeptidase = biological target: T1, Leucine aminopeptidase (Plasmodium falciparum 3D7, UniProt Q8IL11); assay: P. falciparum M17LAP inhibitors, primary screen, biochemical, fluorogenic H-Leu-NHMec substrate, 1536-well (AID 1619); type: functional
T1 sequence (Q8IL11 whole entry): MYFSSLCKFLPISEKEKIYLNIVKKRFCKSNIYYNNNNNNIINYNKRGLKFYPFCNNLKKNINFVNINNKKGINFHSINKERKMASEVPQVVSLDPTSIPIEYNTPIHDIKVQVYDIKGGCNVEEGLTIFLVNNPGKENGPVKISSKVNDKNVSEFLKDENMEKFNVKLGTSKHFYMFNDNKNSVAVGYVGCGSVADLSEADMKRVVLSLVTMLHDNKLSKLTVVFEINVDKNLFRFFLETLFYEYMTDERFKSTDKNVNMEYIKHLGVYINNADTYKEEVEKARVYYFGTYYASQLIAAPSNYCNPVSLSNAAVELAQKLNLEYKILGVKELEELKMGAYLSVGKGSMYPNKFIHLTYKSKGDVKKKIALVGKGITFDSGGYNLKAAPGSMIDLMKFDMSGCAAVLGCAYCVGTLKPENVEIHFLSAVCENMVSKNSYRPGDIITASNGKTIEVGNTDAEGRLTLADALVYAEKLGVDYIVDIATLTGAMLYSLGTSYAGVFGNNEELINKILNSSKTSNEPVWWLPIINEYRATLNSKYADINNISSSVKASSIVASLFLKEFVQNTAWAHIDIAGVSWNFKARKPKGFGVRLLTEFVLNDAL

[1] = biological target: Luciferin 4-monooxygenase (Photinus pyralis, UniProt P08659); assay: inhibition of purified Photinus pyralis luciferase – biochemical, luminescence, dose response (AID 1891)
[2] = Luminescence Cell-Based Dose Response HTS to Identify Inhibitors of 5'UTR Stem-Loop Driven Prion Protein mRNA Translation in H4 Neuroglioblastoma Cells. [Related pubchem assays: 1827 (Project Summary), 1813 (Primary HTS)]; type: functional
[3] = alpha-synuclein stem-loop luciferase translation blockers – H4 neuroglioma cells, luminescence, confirmation (AID 1988); type: functional, cell-based
[4] = Luminescence-based counterscreen assay for KLF5 inhibitors: dose response cell-based high throughput screening assay to identify cytotoxic compounds using the IEC-6 intestinal epithelial cell line. [Related pubchem assays: 1700 (Primary screen.), 1834 (Confirmation screen.), 1858 (Summary AID.), 1905 (Counterscreen.)]; type: functional
[5] = Luminescence Cell-Based Dose Confirmation HTS to Identify Inhibitors of Platelet Dense Granule Release. [Related pubchem assays: 1663 (Primary HTS), 1678 (Summary of Project)]; type: functional
[6] = luciferase reporter signal suppression in cells – H4 neuroglioma cells, luminescence, dose response (AID 1990); type: functional, cell-based
[7] = HEK-293T viability loss after treatment – luminescence, T-cell screen hits, cytotoxicity control for TCR NF-kB inhibitor project, dose response (AID 489026); type: functional, cell-based;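 note: cells exposed to compound about 14 hours before the viability readout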
[8] = biological target: Peroxisome proliferator-activated receptor gamma/Nuclear receptor coactivator 3 (Homo sapiens, UniProt P37231); type: functional;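 note: agonist potency for raising coactivator recruitment to the receptor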
[9] = biological target: Peroxisome proliferator-activated receptor gamma/Nuclear receptor coactivator 1 (Homo sapiens, UniProt P37231); type: functional;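 note: agonist potency as compounds enhance coactivator SRC-1 recruitment to PPARgamma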
[10] = biological target: Peroxisome proliferator-activated receptor gamma/Nuclear receptor coactivator 2 (Homo sapiens, UniProt P37231); type: functional;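 note: agonist potency for raising coactivator recruitment to the receptor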
[11] = HPDE-C7 pancreatic duct cell viability loss – fluorescence, HTS (AID 430); type: functional, cell-based; settings: Homo sapiens
[12] = viability loss of HPDE-C7K cells – cell-based, fluorescence, HTS, primary screen (AID 431); type: functional; settings: Homo sapiens
[13] = A Cell Based Secondary Assay To Explore Cytotoxicity of Compounds that Sensitize Mycobacterium Tuberculosis to Beta-Lactam Antibiotics.; type: functional
[14] = viability of uninfected HEp-2 cells – cell-based, HTS, cytotoxicity control for RSV inhibitor project, dose response (AID 2410); type: functional; settings: human respiratory syncytial virus
Protein RecA = biological target: T2, Protein RecA (Mycobacterium tuberculosis, UniProt P9WHJ3); assay: Fluorescence Cell-Free Homogeneous Dose Retest to Identify Inhibitors of RecA-Intein Splicing Activity. [Related pubchem assays (depositor defined):AID2097, AID2223, AID489010, AID492950]; type: functional
T2 sequence (P9WHJ3 whole entry): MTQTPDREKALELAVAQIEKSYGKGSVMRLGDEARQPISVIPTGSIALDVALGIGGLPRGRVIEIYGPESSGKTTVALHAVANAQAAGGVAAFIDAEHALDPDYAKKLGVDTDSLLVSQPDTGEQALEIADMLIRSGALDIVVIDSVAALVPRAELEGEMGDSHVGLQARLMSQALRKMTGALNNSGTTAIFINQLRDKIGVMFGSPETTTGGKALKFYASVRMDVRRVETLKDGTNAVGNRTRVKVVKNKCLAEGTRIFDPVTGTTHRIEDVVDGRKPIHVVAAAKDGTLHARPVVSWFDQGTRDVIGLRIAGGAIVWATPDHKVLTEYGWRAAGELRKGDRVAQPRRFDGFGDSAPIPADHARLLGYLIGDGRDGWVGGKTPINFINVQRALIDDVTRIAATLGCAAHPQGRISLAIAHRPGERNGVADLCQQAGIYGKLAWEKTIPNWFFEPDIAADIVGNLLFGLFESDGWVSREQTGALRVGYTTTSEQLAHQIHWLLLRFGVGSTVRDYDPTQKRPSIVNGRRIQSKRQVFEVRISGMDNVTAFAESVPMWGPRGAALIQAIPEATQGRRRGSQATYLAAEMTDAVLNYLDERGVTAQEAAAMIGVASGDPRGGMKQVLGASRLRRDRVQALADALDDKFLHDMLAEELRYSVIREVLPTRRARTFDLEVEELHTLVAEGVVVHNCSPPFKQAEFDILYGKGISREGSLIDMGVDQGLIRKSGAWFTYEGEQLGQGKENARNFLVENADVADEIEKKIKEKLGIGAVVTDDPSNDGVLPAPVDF

[15] = biological target: T3, Replicative DNA helicase DnaB (Mycobacterium tuberculosis, UniProt P9WMR3); assay: DnaB intein splicing inhibitors, dose response, biochemical, cell-free fluorescence (AID 449749); type: functional
T3 sequence (P9WMR3 whole entry): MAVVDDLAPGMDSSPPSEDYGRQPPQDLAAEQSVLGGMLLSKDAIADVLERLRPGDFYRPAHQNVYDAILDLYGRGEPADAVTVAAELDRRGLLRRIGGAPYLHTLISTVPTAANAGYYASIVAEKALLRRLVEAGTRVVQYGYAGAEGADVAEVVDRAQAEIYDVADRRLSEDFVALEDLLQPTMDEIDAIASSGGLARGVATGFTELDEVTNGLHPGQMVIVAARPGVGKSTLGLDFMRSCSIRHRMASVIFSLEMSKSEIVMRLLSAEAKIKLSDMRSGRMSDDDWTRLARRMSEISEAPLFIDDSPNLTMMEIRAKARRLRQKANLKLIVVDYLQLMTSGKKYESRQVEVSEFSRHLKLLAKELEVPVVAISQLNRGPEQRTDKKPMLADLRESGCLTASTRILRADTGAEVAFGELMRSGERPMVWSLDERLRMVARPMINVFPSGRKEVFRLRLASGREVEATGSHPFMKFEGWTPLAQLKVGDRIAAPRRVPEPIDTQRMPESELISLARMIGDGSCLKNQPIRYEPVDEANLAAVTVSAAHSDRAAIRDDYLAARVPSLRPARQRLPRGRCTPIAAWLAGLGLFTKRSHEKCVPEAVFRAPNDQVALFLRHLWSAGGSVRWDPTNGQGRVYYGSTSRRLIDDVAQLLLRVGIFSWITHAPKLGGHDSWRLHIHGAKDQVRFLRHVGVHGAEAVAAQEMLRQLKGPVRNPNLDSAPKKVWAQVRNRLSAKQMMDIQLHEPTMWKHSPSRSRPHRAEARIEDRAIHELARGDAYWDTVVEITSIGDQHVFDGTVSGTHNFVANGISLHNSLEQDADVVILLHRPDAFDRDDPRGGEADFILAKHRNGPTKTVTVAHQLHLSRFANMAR

[16] = Luminescence Cell-Based Dose Response HTS to Identify Activators of Luciferase Translation or Activity in H4 […] Cells. [Related pubchem assays: 1829 (Project Summary), 1814 (Primary HTS)]; type: functional
cells [17] = type: functional, cell-based
[18] = biological target: T4, Microphthalmia-associated transcription factor (Homo sapiens, UniProt O75030); assay: reducers of TRPM1 reporter luminescence, concentration series – cell-based, SK-MEL-5, cherry-picked, set 3, MITF inhibitor project, dose response (AID 493073); type: functional;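 note: SK-MEL-5 melanoma cells with luciferase driven by the MITF target TRPM1 promoter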
T4 sequence (O75030 whole entry): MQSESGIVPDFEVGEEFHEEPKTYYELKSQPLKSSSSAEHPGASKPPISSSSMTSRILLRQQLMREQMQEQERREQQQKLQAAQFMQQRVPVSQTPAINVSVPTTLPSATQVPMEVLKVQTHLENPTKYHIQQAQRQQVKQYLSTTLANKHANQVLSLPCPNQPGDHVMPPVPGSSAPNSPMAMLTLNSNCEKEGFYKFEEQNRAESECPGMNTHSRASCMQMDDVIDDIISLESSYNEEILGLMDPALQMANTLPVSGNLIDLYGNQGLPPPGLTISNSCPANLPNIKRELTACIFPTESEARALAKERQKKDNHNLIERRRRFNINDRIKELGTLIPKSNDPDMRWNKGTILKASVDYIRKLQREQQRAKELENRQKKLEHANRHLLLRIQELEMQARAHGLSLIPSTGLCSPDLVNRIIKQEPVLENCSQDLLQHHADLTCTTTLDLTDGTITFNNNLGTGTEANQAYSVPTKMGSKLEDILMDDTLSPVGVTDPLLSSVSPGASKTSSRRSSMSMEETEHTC

cells [19] = type: functional, cell-based; remark: listed apart in the source
cells [20] = type: functional
[21] = Luminescence Cell-Based Dose Response to Identify Activators of 5'UTR Stem-Loop Driven Prion Protein mRNA Translation in H4-C Neuroglioblastoma Cells. [Related pubchem assays: 1829 (Project Summary), 1814 (Primary HTS)]; type: functional
[22] = Luminescence Cell-Based Dose Confirmation to Identify Activators of 5'UTR Stem-Loop Driven Alpha-Synuclein mRNA Translation in H4 Neuroglioblastoma Cells. [Related pubchem assays: 1829 (Project Summary), 1814 (Primary HTS)]; type: functional
[23] = Luminescence Cell-Based Dose Response to Identify Activators of Luciferase Translation or Activity in H4-C Neuroglioblastoma Cells. [Related pubchem assays: 1829 (Project Summary), 1814 (Primary HTS)]; type: functional
H4 = assay: Luminescence Cell-Based Dose Response HTS to Identify Activators of 5'UTR Stem-Loop Driven Prion Protein mRNA Translation in H4 Neuroglioblastoma Cells. [Related pubchem assays: 1829 (Project Summary), 1814 (Primary HTS)]; type: functional; settings: Homo sapiens

Chain of Peroxisome proliferator-activated receptor gamma/Nuclear receptor coactivator 3 (P37231 whole entry): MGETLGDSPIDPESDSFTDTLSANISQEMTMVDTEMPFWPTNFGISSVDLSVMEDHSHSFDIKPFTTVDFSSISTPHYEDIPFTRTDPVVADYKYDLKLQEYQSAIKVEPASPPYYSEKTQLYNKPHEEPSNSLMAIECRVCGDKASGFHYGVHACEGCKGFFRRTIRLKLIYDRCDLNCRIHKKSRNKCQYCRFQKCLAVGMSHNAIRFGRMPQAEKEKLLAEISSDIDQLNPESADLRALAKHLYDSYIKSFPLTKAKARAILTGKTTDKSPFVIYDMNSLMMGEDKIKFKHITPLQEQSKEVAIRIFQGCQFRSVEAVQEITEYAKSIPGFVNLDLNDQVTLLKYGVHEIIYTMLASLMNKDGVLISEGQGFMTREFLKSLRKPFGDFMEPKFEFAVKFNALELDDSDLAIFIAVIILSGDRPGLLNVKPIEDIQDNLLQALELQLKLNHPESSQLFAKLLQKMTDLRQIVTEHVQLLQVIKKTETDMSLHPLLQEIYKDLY
Chain of Peroxisome proliferator-activated receptor gamma/Nuclear receptor coactivator 3 (Q9Y6Q9 whole entry, further chain): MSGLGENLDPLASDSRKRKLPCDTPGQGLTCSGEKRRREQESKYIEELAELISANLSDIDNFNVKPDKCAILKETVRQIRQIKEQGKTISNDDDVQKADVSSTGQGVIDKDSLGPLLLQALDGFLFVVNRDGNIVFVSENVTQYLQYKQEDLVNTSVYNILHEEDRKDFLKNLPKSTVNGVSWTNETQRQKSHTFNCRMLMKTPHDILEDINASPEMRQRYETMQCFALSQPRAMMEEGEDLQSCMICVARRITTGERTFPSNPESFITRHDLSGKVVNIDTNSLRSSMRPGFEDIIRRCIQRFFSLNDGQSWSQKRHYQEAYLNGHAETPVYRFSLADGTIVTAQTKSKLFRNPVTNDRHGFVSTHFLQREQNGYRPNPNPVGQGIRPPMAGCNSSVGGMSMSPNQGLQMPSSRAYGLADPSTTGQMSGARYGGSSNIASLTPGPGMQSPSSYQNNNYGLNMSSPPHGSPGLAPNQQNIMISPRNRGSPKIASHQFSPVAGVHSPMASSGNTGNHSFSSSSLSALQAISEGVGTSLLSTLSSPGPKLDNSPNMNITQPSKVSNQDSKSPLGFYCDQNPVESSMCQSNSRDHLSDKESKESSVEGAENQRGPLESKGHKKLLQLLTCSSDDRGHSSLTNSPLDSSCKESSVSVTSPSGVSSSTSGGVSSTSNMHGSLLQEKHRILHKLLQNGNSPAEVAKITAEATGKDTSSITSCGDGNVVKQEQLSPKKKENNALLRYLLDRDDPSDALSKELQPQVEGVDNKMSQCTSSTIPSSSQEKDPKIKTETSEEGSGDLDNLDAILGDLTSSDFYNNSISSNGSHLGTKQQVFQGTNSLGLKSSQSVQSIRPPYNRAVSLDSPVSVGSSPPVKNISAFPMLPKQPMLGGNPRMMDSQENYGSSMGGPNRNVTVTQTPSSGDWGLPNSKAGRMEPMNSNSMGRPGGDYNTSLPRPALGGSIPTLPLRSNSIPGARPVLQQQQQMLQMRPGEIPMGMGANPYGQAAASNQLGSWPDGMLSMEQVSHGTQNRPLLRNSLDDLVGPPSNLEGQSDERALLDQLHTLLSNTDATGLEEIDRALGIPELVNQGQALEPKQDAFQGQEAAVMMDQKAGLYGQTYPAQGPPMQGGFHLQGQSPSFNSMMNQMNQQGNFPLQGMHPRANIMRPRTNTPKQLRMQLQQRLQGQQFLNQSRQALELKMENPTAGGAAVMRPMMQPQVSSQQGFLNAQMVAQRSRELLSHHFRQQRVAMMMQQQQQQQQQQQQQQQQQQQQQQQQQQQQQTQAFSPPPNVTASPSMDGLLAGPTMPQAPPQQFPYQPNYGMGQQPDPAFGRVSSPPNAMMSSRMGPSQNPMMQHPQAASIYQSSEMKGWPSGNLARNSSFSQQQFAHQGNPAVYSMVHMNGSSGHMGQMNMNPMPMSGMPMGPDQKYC
Chain of Peroxisome proliferator-activated receptor gamma/Nuclear receptor coactivator 2 (P37231 whole entry): as the sequence (P37231 whole entry) above
Chain of Peroxisome proliferator-activated receptor gamma/Nuclear receptor coactivator 2 (Q15596 whole entry, further chain): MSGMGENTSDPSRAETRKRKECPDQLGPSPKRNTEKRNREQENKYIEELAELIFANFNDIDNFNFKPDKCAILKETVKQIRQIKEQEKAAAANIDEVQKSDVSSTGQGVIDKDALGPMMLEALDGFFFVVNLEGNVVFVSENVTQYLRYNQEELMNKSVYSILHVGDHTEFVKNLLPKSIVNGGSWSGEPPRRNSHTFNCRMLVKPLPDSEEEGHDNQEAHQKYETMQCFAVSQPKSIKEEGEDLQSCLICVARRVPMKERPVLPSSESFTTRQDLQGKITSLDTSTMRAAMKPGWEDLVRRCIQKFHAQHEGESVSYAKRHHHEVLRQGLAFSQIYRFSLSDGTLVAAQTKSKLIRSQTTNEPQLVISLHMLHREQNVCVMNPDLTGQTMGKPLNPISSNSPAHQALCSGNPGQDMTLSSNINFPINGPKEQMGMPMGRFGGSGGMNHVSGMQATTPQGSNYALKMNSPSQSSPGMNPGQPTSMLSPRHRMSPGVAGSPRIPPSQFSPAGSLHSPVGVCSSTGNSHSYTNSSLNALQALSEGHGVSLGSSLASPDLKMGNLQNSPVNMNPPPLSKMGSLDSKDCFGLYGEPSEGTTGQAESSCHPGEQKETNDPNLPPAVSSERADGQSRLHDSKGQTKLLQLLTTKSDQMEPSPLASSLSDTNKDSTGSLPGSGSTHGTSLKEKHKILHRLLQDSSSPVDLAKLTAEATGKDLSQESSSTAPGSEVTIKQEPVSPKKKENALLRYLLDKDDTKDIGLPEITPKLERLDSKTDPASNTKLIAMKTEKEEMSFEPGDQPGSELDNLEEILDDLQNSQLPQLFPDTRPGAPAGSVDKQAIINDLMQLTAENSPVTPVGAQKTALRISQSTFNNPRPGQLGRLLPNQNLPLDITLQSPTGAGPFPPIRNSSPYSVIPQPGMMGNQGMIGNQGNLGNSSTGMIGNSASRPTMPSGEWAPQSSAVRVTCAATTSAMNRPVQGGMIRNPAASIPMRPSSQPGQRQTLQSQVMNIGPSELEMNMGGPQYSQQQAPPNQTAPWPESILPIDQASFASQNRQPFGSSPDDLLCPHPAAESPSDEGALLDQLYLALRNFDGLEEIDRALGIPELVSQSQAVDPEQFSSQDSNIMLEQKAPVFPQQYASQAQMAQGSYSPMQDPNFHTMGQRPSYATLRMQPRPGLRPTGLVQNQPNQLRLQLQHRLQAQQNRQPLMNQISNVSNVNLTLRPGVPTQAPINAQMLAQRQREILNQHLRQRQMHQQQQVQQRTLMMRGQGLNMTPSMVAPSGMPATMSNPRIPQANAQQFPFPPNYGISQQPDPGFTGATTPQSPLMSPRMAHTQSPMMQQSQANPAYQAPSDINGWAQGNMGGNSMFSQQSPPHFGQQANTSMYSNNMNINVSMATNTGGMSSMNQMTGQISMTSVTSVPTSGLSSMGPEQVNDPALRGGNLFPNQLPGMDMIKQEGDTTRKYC
Chain of Luciferin 4-monooxygenase (P08659 whole entry): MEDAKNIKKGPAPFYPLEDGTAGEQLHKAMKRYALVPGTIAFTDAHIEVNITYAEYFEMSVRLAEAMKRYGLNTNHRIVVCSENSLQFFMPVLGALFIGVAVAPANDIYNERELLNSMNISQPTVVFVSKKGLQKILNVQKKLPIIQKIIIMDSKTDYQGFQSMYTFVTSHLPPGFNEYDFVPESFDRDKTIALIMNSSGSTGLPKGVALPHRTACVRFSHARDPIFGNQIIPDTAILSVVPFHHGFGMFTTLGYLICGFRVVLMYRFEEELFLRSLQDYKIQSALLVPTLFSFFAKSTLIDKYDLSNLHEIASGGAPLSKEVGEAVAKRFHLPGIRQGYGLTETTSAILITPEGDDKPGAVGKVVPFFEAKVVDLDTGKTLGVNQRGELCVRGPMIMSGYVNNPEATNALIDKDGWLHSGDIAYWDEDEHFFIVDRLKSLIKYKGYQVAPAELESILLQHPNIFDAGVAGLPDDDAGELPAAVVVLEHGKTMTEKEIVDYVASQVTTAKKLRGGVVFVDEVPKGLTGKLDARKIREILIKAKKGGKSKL

## COc1ccc(NC(=O)CSc2nccc(C)n2)cc1
Leucine aminopeptidase
  IC50: 20.3 µM (active)

## NC(=NOCc1ccc([N+](=O)[O-])cc1)c1ccccn1
[1]
  EC50: 9.46 µM (active)
[2]
  EC50: 0.223 µM (active)
[3]
  EC50: 0.143 µM (active)
[4]
  IC50: > 39.8 µM (not active)
[5]
  EC50: 7.95 µM (active)
[6]
  EC50: 0.201 µM (active)
[7]
  IC50: > 80 µM (inactive)

## COc1ccc(S(=O)(=O)Nc2c(F)cccc2F)cc1
[8]
  EC50: > 79.4 µM (not active)
[9]
  EC50: > 79.4 µM (not active)
[10]
  EC50: > 79.4 µM (not active)

## O=C1c2n[nH]c(-c3ccccc3O)c2C(c2ccc(F)cc2)N1Cc1ccco1 (stereo unspecified)
[11]
  EC50: 16.9 µM (active)
[12]
  EC50: 18.7 µM (active)

## CCO[C@H]1OC(C(=O)NCc2nc3ccccc3[nH]2)=C[C@@H](c2ccc(C(F)(F)F)cc2)[C@@H]1CCCO
[13]
  CC50: > 40 µM (active)

## CCOC(=O)Nc1c(O)ccc2oc(C)c(-c3ccccc3)c12
Leucine aminopeptidase
  IC50: 17.3 µM (active)

## CCOc1ccc(S(=O)(=O)Nc2cc(Sc3nc[nH]n3)c3oc(=O)sc3c2)cc1
[11]
  EC50: 18.6 µM (active)
[14]
  CC50: 26.2 µM (active)
[12]
  EC50: 13.8 µM (active)

## O=S(=O)(CCSc1ccccn1)c1nc2ccccc2s1
Protein RecA
  EC50: 9.21 µM (active)
[11]
  EC50: 6.03 µM (active)
[15]
  AC50: 5.68 µM (active)
[12]
  EC50: 8.47 µM (active)

## N#C/C(=C\c1cccs1)Sc1nc2ccccc2s1
[11]
  EC50: 17.3 µM (active)
[12]
  EC50: 16.3 µM (active)

## COC(=O)CSc1nc2cc3c(cc2cc1C#N)OCO3
[8]
  EC50: 7.25 µM (active)
[16]
  EC50: 0.176 µM (active)
[9]
  EC50: 7.89 µM (active)
[10]
  EC50: 5.17 µM (active)

## Cc1cc(NC(=O)CN2C(=O)NC3(CCC(C)CC3)C2=O)no1 (stereo unspecified)
[8]
  EC50: > 79.4 µM (not active)
[9]
  EC50: > 79.4 µM (not active)
[10]
  EC50: > 79.4 µM (not active)

## O=C(Nc1ccccc1NC(=O)c1c(F)c(F)c(F)c(F)c1F)c1c(F)c(F)c(F)c(F)c1F
[11]
  EC50: 12.5 µM (active)
[12]
  EC50: 17.1 µM (active)

## Cc1nc(SCC(=O)Nc2ccc(F)cc2)c2oc3ccccc3c2n1
[8]
  EC50: > 79.4 µM (not active)
[9]
  EC50: > 79.4 µM (not active)
[10]
  EC50: 9.31 µM (active)

## COc1ccc(CC(=O)NCc2nnc(SCC(=O)Nc3cccc(F)c3)n2C)cc1
[8]
  EC50: > 79.4 µM (not active)
[9]
  EC50: > 79.4 µM (not active)
[10]
  EC50: > 79.4 µM (not active)

## O=C(NCc1cccs1)c1cc(-c2ccccc2)nc2ccccc12
[13]
  CC50: > 40 µM (active)

## Cn1cccc1-c1cc(C(=O)N/N=C/c2cc(Br)ccc2O)[nH]n1
Cells [17]
  EC50: > 350 µM (not active)
[4]
  IC50: 13.4 µM (not active)
[18]
  AC50: 5.25 µM (active)
Cells [19]
  EC50: 8.69 µM (active)

## CC1=NNC(=O)C1CC(=O)N/N=C/C(C)=C/c1ccccc1 (stereo unspecified)
Leucine aminopeptidase
  IC50: 52.8 µM (active)

## Cc1ccc(NC(=O)ON=C2CCCC2)cc1
Cells [20]
  IC50: 43.2 µM (active)
[21]
  EC50: 1.53 µM (active)
[16]
  EC50: 0.777 µM (active)
[22]
  EC50: 0.547 µM (active)
[23]
  EC50: 0.501 µM (active)
H4
  EC50: > 120 µM (not active)
